# Test results taken from ChEMBL document CHEMBL4507310, “Data for DCP probe A-1211212” (2021).
# Columns and labels:
# [1] = target: TGF-beta receptor type-1 (Homo sapiens) (UniProt P36897); details: Compound concentration 1000.0 nM
# [2] = target: Ephrin type-A receptor 1 (Homo sapiens) (UniProt P21709); details: Compound concentration 1000.0 nM
# [3] = target: Serine/threonine-protein kinase Nek2 (Homo sapiens) (UniProt P51955); details: Compound concentration 1000.0 nM
# [4] = target: Dual specificity mitogen-activated protein kinase kinase 1 (Homo sapiens) (UniProt Q02750); details: Compound concentration 1000.0 nM
# [5] = target: Mitogen-activated protein kinase kinase kinase 6 (Homo sapiens) (UniProt O95382); details: Compound concentration 1000.0 nM
# [6] = test system: Receptor-type tyrosine-protein kinase FLT3 (Homo sapiens), P36888 [N841I]; details: Compound concentration 1000.0 nM
# [7] = target: Cyclin-dependent kinase 19 (Homo sapiens) (UniProt Q9BWU1); details: Compound concentration 1000.0 nM
# [8] = target: Ephrin type-A receptor 2 (Homo sapiens) (UniProt P29317); details: Compound concentration 1000.0 nM
# [9] = target: Ribosomal protein S6 kinase alpha-2 (Homo sapiens) (UniProt Q15349); details: Compound concentration 1000.0 nM
# [10] = target: Cyclin-dependent kinase 8 (Homo sapiens) (UniProt P49336); details: Compound concentration 1000.0 nM
# [11] = target: Cytoplasmic tyrosine-protein kinase BMX (Homo sapiens) (UniProt P51813); details: Compound concentration 1000.0 nM
# [12] = target: Serine/threonine-protein kinase WNK2 (Homo sapiens) (UniProt Q9Y3S1); details: Compound concentration 1000.0 nM
# [13] = target: T1, Alpha-1B adrenergic receptor (Homo sapiens) (UniProt P35368); experiment: Alpha1B (h) Eurofins-Cerep binding assay; set-up: ligand concentration 0.15 nM; details: filed as antagonist, Compound concentration 10.0 uM
# T1 sequence (whole entry): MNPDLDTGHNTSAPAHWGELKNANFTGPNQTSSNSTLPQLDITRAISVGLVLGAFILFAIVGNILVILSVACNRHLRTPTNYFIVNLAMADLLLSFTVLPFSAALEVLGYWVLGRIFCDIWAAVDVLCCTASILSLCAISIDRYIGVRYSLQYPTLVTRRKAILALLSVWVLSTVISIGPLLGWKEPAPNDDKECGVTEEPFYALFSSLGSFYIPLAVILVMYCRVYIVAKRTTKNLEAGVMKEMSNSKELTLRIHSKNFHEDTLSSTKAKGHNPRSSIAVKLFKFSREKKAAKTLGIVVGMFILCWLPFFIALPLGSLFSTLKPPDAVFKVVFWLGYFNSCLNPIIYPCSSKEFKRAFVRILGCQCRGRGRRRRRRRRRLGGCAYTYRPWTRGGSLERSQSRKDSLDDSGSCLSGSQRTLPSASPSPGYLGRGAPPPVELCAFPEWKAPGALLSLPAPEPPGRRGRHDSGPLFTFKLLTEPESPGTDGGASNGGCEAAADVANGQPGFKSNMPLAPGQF
# [14] = target: Mu-type opioid receptor (Homo sapiens) (UniProt P35372); experiment: mu (MOP) (h) Eurofins-Cerep binding assay; set-up: ligand concentration 0.5 nM; details: filed as agonist, Compound concentration 10.0 uM
# [15] = target: Protein-tyrosine kinase 6 (Homo sapiens) (UniProt Q13882); details: Compound concentration 1000.0 nM
# [16] = target: Mitogen-activated protein kinase 12 (Homo sapiens) (UniProt P53778); details: Compound concentration 1000.0 nM
# [17] = target: Tyrosine-protein kinase Fyn (Homo sapiens) (UniProt P06241); details: Compound concentration 1000.0 nM
# [18] = target: Ephrin type-B receptor 6 (Homo sapiens) (UniProt O15197); details: Compound concentration 1000.0 nM
# [19] = target: SRSF protein kinase 2 (Homo sapiens) (UniProt P78362); details: Compound concentration 1000.0 nM
# [20] = target: Hormonally up-regulated neu tumor-associated kinase (Homo sapiens) (UniProt P57058); details: Compound concentration 1000.0 nM
# [21] = test system: Phosphatidylinositol 4,5-bisphosphate 3-kinase catalytic subunit alpha isoform (Homo sapiens), P42336 [E545A]; details: Compound concentration 1000.0 nM
# [22] = target: 5'-AMP-activated protein kinase catalytic subunit alpha-2 (Homo sapiens) (UniProt P54646); details: Compound concentration 1000.0 nM
# [23] = target: Hepatocyte growth factor receptor (Homo sapiens) (UniProt P08581); details: Compound concentration 1000.0 nM
# [24] = target: Mitogen-activated protein kinase kinase kinase 10 (Homo sapiens) (UniProt Q02779); details: Compound concentration 1000.0 nM
# [25] = target: Dual specificity mitogen-activated protein kinase kinase 6 (Homo sapiens) (UniProt P52564); details: Compound concentration 1000.0 nM
# [26] = target: Serine/threonine-protein kinase PAK 5 (Homo sapiens) (UniProt Q9P286); details: Compound concentration 1000.0 nM
# [27] = target: Dual specificity protein kinase CLK1 (Homo sapiens) (UniProt P49759); details: Compound concentration 1000.0 nM
# [28] = target: L-type Ca2+ channel (dihydropyridine site) (Rattus norvegicus, UniProt P22002+P27732+Q02485); experiment: Ca2+ channel (L, dihydropyridine site) Eurofins-Cerep binding assay; assay type: protein assay; set-up: incubation time 90 min, incubation temperature RT, ligand concentration 0.1 nM; details: rat cerebral cortex, probe [3H]nitrendipine (0.1 nM), compound concentration 10 uM, read-out: % Inhibition of Control Specific Binding (Mean n=2)
# [29] = target: Ephrin type-A receptor 7 (Homo sapiens) (UniProt Q15375); details: Compound concentration 1000.0 nM
# [30] = target: Dual specificity protein kinase CLK3 (Homo sapiens) (UniProt P49761); details: Compound concentration 1000.0 nM
# [31] = target: Serine/threonine-protein kinase D3 (Homo sapiens) (UniProt O94806); details: Compound concentration 1000.0 nM
# [32] = target: Phosphatidylinositol 4-phosphate 5-kinase type-1 alpha (Homo sapiens) (UniProt Q99755); details: Compound concentration 1000.0 nM
# [33] = target: cAMP-dependent protein kinase catalytic subunit PRKX (Homo sapiens) (UniProt P51817); details: Compound concentration 1000.0 nM
# [34] = target: Substance-K receptor (Homo sapiens) (UniProt P21452); experiment: NK2 (h) Eurofins-Cerep binding assay; set-up: ligand concentration 0.1 nM; details: filed as agonist, Compound concentration 10.0 uM
# [35] = target: Casein kinase I isoform epsilon (Homo sapiens) (UniProt P49674); details: Compound concentration 1000.0 nM
# [36] = target: Muscarinic acetylcholine receptor M3 (Homo sapiens) (UniProt P20309); details: Compound concentration 10.0 uM
# Serine/threonine-protein kinase WNK2 (Homo sapiens), sequence (Q9Y3S1 whole entry): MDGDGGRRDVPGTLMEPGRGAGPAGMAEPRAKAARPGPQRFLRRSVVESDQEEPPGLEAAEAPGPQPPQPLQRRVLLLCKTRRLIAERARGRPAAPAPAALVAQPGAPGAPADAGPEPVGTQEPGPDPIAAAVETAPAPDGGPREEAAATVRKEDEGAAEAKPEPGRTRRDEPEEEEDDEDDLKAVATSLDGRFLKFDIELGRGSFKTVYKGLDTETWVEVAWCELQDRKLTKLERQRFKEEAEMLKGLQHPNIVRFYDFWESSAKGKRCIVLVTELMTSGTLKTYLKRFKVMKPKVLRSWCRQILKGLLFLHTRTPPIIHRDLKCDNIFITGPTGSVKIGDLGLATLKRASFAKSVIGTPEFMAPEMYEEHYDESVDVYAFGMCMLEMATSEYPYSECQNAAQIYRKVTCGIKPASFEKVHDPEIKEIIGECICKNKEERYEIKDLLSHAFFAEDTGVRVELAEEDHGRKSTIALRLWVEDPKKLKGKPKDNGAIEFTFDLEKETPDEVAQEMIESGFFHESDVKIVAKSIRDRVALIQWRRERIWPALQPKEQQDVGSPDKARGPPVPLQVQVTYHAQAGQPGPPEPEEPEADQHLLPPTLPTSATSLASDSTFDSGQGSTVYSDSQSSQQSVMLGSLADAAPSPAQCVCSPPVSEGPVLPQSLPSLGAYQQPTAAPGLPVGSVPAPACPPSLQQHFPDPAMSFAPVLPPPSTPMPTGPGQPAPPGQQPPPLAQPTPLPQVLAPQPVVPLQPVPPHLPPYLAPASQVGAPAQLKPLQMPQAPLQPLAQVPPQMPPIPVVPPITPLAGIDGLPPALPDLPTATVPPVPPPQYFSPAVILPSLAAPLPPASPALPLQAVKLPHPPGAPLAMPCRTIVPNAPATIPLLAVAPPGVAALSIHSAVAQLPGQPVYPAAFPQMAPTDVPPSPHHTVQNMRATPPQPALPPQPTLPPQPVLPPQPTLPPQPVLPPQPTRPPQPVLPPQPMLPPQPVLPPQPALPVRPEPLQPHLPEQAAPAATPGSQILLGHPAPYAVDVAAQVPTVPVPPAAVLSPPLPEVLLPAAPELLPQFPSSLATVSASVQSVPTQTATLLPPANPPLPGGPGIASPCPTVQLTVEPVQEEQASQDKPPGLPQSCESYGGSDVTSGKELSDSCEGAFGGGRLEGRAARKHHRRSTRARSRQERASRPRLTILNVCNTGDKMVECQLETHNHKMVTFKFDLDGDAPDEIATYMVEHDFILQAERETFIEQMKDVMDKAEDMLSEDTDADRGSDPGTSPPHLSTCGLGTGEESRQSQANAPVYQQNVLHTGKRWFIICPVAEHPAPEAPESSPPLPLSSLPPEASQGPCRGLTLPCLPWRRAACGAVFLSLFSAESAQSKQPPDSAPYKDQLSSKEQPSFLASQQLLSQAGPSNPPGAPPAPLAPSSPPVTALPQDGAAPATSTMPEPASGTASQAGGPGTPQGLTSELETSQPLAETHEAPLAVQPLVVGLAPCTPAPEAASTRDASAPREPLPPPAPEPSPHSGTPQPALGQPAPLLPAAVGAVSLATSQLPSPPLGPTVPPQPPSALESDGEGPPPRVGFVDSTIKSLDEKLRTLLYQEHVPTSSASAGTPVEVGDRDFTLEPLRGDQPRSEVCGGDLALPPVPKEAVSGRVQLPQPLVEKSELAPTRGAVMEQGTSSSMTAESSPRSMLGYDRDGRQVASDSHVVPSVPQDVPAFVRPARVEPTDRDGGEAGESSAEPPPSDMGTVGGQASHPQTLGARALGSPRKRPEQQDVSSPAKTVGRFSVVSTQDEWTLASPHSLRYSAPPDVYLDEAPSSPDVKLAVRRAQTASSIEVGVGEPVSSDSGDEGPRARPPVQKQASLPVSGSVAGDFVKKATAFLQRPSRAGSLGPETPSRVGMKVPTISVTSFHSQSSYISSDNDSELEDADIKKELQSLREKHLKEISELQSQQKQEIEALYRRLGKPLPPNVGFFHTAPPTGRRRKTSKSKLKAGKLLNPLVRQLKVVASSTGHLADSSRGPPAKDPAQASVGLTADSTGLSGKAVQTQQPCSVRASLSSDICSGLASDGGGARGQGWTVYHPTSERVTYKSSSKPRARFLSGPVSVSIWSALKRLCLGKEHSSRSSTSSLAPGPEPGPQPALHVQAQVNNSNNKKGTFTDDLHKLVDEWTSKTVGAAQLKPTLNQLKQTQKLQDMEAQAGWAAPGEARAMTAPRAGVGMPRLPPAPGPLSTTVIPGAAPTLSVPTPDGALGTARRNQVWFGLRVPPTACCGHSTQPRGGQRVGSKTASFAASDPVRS
# Cytoplasmic tyrosine-protein kinase BMX (Homo sapiens), sequence (P51813 whole entry): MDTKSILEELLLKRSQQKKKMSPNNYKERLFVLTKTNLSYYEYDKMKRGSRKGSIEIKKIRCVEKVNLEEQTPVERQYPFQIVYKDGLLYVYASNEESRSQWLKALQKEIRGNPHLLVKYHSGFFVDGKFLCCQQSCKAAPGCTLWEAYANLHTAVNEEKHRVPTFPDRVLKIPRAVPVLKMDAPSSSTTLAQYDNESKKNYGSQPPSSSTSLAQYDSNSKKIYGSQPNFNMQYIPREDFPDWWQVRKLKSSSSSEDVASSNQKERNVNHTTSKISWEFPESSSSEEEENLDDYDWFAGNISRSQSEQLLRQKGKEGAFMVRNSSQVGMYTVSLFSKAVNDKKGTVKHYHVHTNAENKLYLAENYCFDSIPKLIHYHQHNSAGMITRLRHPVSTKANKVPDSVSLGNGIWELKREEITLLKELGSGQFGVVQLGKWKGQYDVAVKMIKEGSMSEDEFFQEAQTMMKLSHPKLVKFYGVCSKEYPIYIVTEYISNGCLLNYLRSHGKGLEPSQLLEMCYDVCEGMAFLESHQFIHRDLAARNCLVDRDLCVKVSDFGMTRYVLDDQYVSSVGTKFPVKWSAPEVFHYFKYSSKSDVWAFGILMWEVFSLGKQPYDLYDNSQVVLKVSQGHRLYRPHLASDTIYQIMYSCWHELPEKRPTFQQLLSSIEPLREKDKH
# Protein-tyrosine kinase 6 (Homo sapiens), sequence (Q13882 whole entry, looked up): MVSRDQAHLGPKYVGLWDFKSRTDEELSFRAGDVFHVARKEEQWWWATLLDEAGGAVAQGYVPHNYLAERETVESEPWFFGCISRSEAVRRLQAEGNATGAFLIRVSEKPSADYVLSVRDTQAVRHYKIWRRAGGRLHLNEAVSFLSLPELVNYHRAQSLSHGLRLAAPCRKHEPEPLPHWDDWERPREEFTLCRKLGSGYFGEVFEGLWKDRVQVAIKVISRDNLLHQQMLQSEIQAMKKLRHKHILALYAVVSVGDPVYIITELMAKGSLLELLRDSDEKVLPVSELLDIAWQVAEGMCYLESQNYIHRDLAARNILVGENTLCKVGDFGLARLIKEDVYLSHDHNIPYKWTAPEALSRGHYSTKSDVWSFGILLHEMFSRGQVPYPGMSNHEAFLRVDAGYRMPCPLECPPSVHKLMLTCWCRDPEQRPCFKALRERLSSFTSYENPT
# Phosphatidylinositol 4,5-bisphosphate 3-kinase catalytic subunit alpha isoform (Homo sapiens), P42336 [E545A], sequence (P42336 whole entry E545A, canonical isoform): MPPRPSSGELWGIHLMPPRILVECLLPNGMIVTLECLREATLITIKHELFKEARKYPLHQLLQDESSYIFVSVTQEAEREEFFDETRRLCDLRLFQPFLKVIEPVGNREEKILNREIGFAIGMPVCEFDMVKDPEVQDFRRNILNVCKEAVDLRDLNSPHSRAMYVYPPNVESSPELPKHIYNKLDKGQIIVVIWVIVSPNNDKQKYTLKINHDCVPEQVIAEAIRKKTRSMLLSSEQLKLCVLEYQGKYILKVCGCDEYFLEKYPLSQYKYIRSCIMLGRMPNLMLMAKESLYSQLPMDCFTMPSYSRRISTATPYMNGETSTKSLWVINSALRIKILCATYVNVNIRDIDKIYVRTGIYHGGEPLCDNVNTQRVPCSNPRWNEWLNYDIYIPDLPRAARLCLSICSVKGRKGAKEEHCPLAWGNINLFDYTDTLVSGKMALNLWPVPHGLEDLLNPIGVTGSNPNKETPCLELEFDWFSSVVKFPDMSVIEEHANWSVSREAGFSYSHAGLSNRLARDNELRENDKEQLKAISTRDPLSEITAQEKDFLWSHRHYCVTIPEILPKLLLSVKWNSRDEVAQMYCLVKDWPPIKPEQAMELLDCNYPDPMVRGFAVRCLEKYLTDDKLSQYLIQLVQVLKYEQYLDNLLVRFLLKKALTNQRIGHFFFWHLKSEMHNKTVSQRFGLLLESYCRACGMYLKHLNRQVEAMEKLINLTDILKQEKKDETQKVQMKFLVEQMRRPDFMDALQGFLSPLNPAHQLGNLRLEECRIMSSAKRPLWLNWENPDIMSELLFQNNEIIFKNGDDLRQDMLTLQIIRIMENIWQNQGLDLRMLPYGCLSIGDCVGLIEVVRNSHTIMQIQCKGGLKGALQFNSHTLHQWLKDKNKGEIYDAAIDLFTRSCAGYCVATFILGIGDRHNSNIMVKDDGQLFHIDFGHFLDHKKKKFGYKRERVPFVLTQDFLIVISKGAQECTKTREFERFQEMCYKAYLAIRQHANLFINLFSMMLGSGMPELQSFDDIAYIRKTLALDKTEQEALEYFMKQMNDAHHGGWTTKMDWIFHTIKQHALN
# Cyclin-dependent kinase 19 (Homo sapiens), sequence (Q9BWU1 whole entry): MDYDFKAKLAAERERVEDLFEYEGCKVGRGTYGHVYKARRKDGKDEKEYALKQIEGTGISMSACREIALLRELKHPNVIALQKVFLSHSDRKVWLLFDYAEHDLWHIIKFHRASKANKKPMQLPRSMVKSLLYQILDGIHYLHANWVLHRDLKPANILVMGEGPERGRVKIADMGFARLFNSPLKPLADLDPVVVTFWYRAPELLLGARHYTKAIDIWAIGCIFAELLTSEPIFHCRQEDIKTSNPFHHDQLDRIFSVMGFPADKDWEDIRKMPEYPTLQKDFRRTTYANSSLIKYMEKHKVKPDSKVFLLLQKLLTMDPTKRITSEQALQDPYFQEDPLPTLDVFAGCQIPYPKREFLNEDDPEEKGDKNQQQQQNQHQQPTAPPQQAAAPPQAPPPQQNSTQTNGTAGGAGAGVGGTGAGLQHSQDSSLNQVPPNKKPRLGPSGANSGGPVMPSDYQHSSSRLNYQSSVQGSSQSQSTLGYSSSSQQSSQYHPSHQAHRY
Structure (SMILES),residual activity [1],residual activity [2],residual activity [3],residual activity [4],residual activity [5],residual activity [6],residual activity [7],residual activity [8],residual activity [9],residual activity [10],residual activity [11],residual activity [12],% Inhibition of Control Specific Binding (Mean n=2) [13],% Inhibition of Control Specific Binding (Mean n=2) [14],residual activity [15],residual activity [16],residual activity [17],residual activity [18],residual activity [19],residual activity [20],further results
O=C(NS(=O)(=O)c1ccc(NCC2CCOCC2)c([N+](=O)[O-])c1)c1ccc(N2CCN(Cc3ccc(C(F)(F)F)cc3-c3ccc(Cl)cc3)CC2)cc1Oc1cnc2[nH]ccc2c1 [A-1210227],93%,98%,100%,92%,80%,100%,90%,92%,100%,100%,100%,75%,13.5%,2.8%,100%,50%,100%,82%,100%,100%,"residual activity [21]: 86%; residual activity [22]: 100%; residual activity [23]: 93%; residual activity [24]: 95%; residual activity [25]: 97%; residual activity [26]: 95%; residual activity [27]: 69%; inhibition at 90 min, 10 µM [28]: 7.3%; residual activity [29]: 88%; residual activity [30]: 100%; residual activity [31]: 100%; residual activity [32]: 93%; residual activity [33]: 100%; % Inhibition of Control Specific Binding (Mean n=2) [34]: -2.4%; residual activity [35]: 95%; inhibition [36]: 12.6%"
CO[C@H]1CC[C@H](CNc2ccc(S(=O)(=O)NC(=O)c3ccc(N4CCN(CC5=C(c6ccc(Cl)cc6)CC(C)(C)CC5)CC4)cc3Oc3cnc4[nH]ccc4c3)cc2[N+](=O)[O-])CC1 [A-1211212],84%,100%,100%,99%,93%,100%,73%,100%,71%,91%,95%,76%,15.4%,12.9%,100%,47%,97%,87%,55%,100%,"residual activity [21]: 67%; residual activity [22]: 93%; residual activity [23]: 68%; residual activity [24]: 89%; residual activity [25]: 84%; residual activity [26]: 99%; residual activity [27]: 92%; inhibition at 90 min, 10 µM [28]: 63.2%; residual activity [29]: 87%; residual activity [30]: 90%; residual activity [31]: 100%; residual activity [32]: 86%; residual activity [33]: 100%; % Inhibition of Control Specific Binding (Mean n=2) [34]: -6.1%; residual activity [35]: 88%; inhibition [36]: 3.65%"
